Assay results taken from ChEMBL document CHEMBL3774345, “Synthesis of new diarylamides with pyrimidinyl pyridine scaffold and evaluation of their anti-proliferative effect on cancer cell lines” (Bioorg Med Chem Lett, 2016).

Columns and labels:
Format in all cases: functional
ACHN = test: Cytotoxicity against human ACHN cells assessed as cell growth at 10 uM after 24 hrs by SRB assay; details: read-out: Activity
K562 = test: Cytotoxicity against human K562 cells assessed as growth inhibition at 10 uM after 24 hrs by SRB assay; details: K562, 24 h, read-out: GI
[1] = Cytotoxicity against human SF295 cells assessed as cell growth at 10 uM after 24 hrs by SRB assay; details: SF-295, 24 h, read-out: Activity
SN12C = test: Cytotoxicity against human SN12C cells assessed as cell growth at 10 uM after 24 hrs by SRB assay; details: read-out: Activity
SK-MEL-5 = test: Cytotoxicity against human SK-MEL-5 cells assessed as growth inhibition at 10 uM after 24 hrs by SRB assay; details: SK-MEL-5, 24 h, read-out: GI
Malme-3M = test: Cytotoxicity against human MALME-3M cells assessed as cell growth at 10 uM after 24 hrs by SRB assay; details: read-out: Activity
[2] = Cytotoxicity against human MOLT4 cells assessed as cell growth at 10 uM after 24 hrs by SRB assay; details: MOLT-4, 24 h, read-out: Activity
[3] = Cytotoxicity against human NCI60 cells assessed as growth inhibition at 10 uM after 24 hrs by SRB assay; details: NCI60, 24 h
NCI-H23 = test: Cytotoxicity against human NCI-H23 cells assessed as cell growth at 10 uM after 24 hrs by SRB assay; details: NCI-H23, 24 h, read-out: Activity
MDA-MB-231 = test: Cytotoxicity against human MDA-MB-231 cells assessed as growth inhibition at 10 uM after 24 hrs by SRB assay; details: MDA-MB-231, 24 h, read-out: GI
NCI-H226 = test: Cytotoxicity against human NCI-H226 cells assessed as growth inhibition at 10 uM after 24 hrs by SRB assay; details: NCI-H226, 24 h, read-out: GI
KM12 = test: Cytotoxicity against human KM12 cells assessed as cell growth at 10 uM after 24 hrs by SRB assay; details: KM12, 24 h, read-out: Activity
MDA-MB-435 = test: Cytotoxicity against human MDA-MB-435 cells assessed as cell growth at 10 uM after 24 hrs by SRB assay; details: MDA-MB-435, 24 h, read-out: Activity
[4] = Cytotoxicity against human TK10 cells assessed as cell growth at 10 uM after 24 hrs by SRB assay; details: TK-10, 24 h, read-out: Activity
[5] = Cytotoxicity against human OVCAR8 cells assessed as cell growth at 10 uM after 24 hrs by SRB assay; details: OVCAR-8, 24 h, read-out: Activity
[6] = Cytotoxicity against human HL-60(TB) cells assessed as cell growth at 10 uM after 24 hrs by SRB assay; details: HL-60, 24 h, read-out: Activity
U-251 = test: Cytotoxicity against human U251 cells assessed as cell growth at 10 uM after 24 hrs by SRB assay; details: U-251, 24 h, read-out: Activity
HT-29 = test: Cytotoxicity against human HT-29 cells assessed as cell growth at 10 uM after 24 hrs by SRB assay; details: HT-29, 24 h, read-out: Activity
T47D = test: Cytotoxicity against human T47D cells assessed as growth inhibition at 10 uM after 24 hrs by SRB assay; details: read-out: GI
SR = test: Cytotoxicity against human SR cells assessed as cell growth at 10 uM after 24 hrs by SRB assay; details: read-out: Activity
MDA-MB-468 = test: Cytotoxicity against human MDA-MB-468 cells assessed as cell growth at 10 uM after 24 hrs by SRB assay; details: MDA-MB-468, 24 h, read-out: Activity
[7] = Cytotoxicity against human UO31 cells assessed as growth inhibition at 10 uM after 24 hrs by SRB assay; details: UO-31, 24 h, read-out: GI
M14 = test: Cytotoxicity against human M14 cells assessed as cell growth at 10 uM after 24 hrs by SRB assay; details: M14, 24 h, read-out: Activity
[8] = Cytotoxicity against human NCI-ADR-RES cells assessed as cell growth at 10 uM after 24 hrs by SRB assay; details: read-out: Activity
[9] = Cytotoxicity against human SF539 cells assessed as cell growth at 10 uM after 24 hrs by SRB assay; details: SF-539, 24 h, read-out: Activity
[10] = Cytotoxicity against human UO31 cells assessed as cell growth at 10 uM after 24 hrs by SRB assay; details: UO-31, 24 h, read-out: Activity
[11] = Cytotoxicity against human DU145 cells assessed as cell growth at 10 uM after 24 hrs by SRB assay; details: DU-145, 24 h, read-out: Activity
A498 = test: Cytotoxicity against human A498 cells assessed as growth inhibition at 10 uM after 24 hrs by SRB assay; details: A498, 24 h, read-out: GI
NCI-H522 = test: Cytotoxicity against human NCI-H522 cells assessed as growth inhibition at 10 uM after 24 hrs by SRB assay; details: NCI-H522, 24 h, read-out: GI
[12] = Cytotoxicity against human HOP92 cells assessed as growth inhibition at 10 uM after 24 hrs by SRB assay; details: HOP-92, 24 h, read-out: GI
[13] = Cytotoxicity against human RPMI8226 cells assessed as growth inhibition at 10 uM after 24 hrs by SRB assay; details: RPMI-8226, 24 h, read-out: GI

Compound | growth at 10 µM (ACHN) [%] | growth at 10 µM [1] [%] | growth at 10 µM (SN12C) [%] | growth at 10 µM (Malme-3M) [%] | growth at 10 µM [2] [%] | inhibition at 10 µM [3] [%] | growth at 10 µM (NCI-H23) [%] | growth at 10 µM (KM12) [%] | growth at 10 µM (MDA-MB-435) [%] | growth at 10 µM [4] [%] | growth at 10 µM [5] [%] | growth at 10 µM (U-251) [%] | growth at 10 µM (HT-29) [%] | growth at 10 µM (SR) [%] | growth at 10 µM (MDA-MB-468) [%] | growth at 10 µM (M14) [%] | growth at 10 µM [8] [%] | growth at 10 µM [9] [%] | growth at 10 µM [10] [%] | growth at 10 µM [11] [%] | further results
COc1cc(OC)cc(C(=O)Nc2cc(-c3cccnc3)nc(NCCCN3CCOCC3)n2)c1 | 103 | 101 | 86.4 | 110 | 82.3 | 8.88 | 91.7 | 104 | 102 | 95.5 | 91.8 | 90.5 | 85.2 | 57.9 | 83.2 | 104 | 95.4 | 91.1 | 53.6 | 104 | inhibition of growth at 10 µM (K562): 25.9%; inhibition of growth at 10 µM (SK-MEL-5): 31.7%; inhibition of growth at 10 µM (MDA-MB-231): 20.4%; inhibition of growth at 10 µM (NCI-H226): 32.3%; growth at 10 µM [6]: 86.5%; inhibition of growth at 10 µM (T47D): 27.2%; inhibition of growth at 10 µM [7]: 46.4%
Cc1cc(Cl)ccc1C(=O)Nc1cc(-c2cccnc2)nc(NCCCN2CCOCC2)n1 | 100 | 97.9 | 111 | 104 | 98 | 1.46 | 96.7 | 101 | 101 | 87.2 | 96.9 | 96.2 | 95.7 | 98.7 | 88.5 | 101 | 106 | 91.4 | 89.2 | 97.6 | inhibition of growth at 10 µM (NCI-H226): 22.4%; inhibition of growth at 10 µM (A498): 22.8%
COCCCNc1nc(NC(=O)c2cc(OC)cc(OC)c2)cc(-c2cccnc2)n1 | 98.2 | 100 | 95.3 | 112 | 83.5 | 8.06 | 98.6 | 103 | 100 | 86.7 | 79.3 | 96.8 | 95.5 | 80.6 | 94.8 | 107 | 83.5 | 88.9 | 56.7 | 101 | inhibition of growth at 10 µM (SK-MEL-5): 27.6%; inhibition of growth at 10 µM (NCI-H522): 23.5%; inhibition of growth at 10 µM (MDA-MB-231): 30.9%; inhibition of growth at 10 µM [12]: 47.4%; growth at 10 µM [6]: 90.2%; inhibition of growth at 10 µM (T47D): 36.2%; inhibition of growth at 10 µM [7]: 43.3%; inhibition of growth at 10 µM [13]: 30.6%
O=C(Nc1cc(-c2cccnc2)nc(NCCCN2CCOCC2)n1)c1ccc(F)cc1Cl | 102 | 100 | 92.1 | 108 | 98.4 | 3.57 | 90.5 | 104 | 106 | 97.1 | 94.2 | 92 | 87.3 | 92.8 | 93.5 | 102 | 94.5 | 101 | 77 | 112 | growth at 10 µM [6]: 83.6%; inhibition of growth at 10 µM [7]: 23%
COCCCNc1nc(NC(=O)c2ccc(Cl)cc2C)cc(-c2cccnc2)n1 | 99.1 | 104 | 111 | 103 | 93.9 | 0.78 | 107 | 104 | 95.6 | 88.5 | 94.2 | 112 | 105 | 110 | 111 | 103 | 108 | 89.9 | 95.9 | 103 | inhibition of growth at 10 µM (NCI-H522): 21.4%; inhibition of growth at 10 µM [12]: 33%; growth at 10 µM [6]: 106%
COCCCNc1nc(NC(=O)c2cc(Br)cc(C(F)(F)F)c2)cc(-c2cccnc2)n1 | 87.3 | 89.2 | 89.1 | 99.7 | 80.1 | 11.3 | 103 | 105 | 88.4 | 95.8 | 87.5 | 85.9 | 83.7 | 83.4 | 82.8 | 96.5 | 99.5 | 94 | 60.5 | 100 | inhibition of growth at 10 µM (K562): 26.7%; inhibition of growth at 10 µM (SK-MEL-5): 29.5%; inhibition of growth at 10 µM (MDA-MB-231): 24.2%; inhibition of growth at 10 µM [12]: 42.1%; growth at 10 µM [6]: 94.6%; inhibition of growth at 10 µM (T47D): 35%; inhibition of growth at 10 µM [7]: 39.5%; inhibition of growth at 10 µM (A498): 23.8%; inhibition of growth at 10 µM [13]: 34.4%
